Measured values taken from patent US10266544B2, “Aryl substituted aminomethyl spectinomycin analogs as antibacterial agents” (ST. JUDE CHILDREN'S RESEARCH HOSPITAL, INC., priority 2013, dated 2019).
Where a name gives a salt, the structure may show the parent alone. Read-outs that look alike come from different tables or passages of the source.

Legend:
Assay type in all cases: cell-based
[1] = test system: Klebsiella pneumoniae (ATCC 33495); experiment: MIC determination, microbroth dilution; conditions: ATCC33495
[2] = test system: M. tuberculosis clinical isolates; experiment: microbe, parasite or virus in culture; conditions: Mycobacterium tuberculosis
[3] = test system: live vaccine strain (LVS) of Francisella tularensis; experiment: microbe, parasite or virus in culture; conditions: Francisella tularensis
[4] = test system: Stenotrophomonas maltophilia (ATCC 13637); experiment: MIC determination, microbroth dilution; conditions: ATCC13637; Stenotrophomonas maltophilia (ATCC 13637); read-out: MIC S.m.
[5] = test system: Bacillus anthracis, Sterne 34F2; experiment: microbe, parasite or virus in culture; conditions: STERNE34F2, read-out: MIC B.a.
[6] = test system: Proteus mirabilis (ATCC 25933); experiment: MIC determination, microbroth dilution; conditions: ATCC25933
[7] = test system: Legionella pneumophila (ATCC 33153); experiment: microbe, parasite or virus in culture; conditions: ATCC33153, 72 h, read-out: Zone of inhibition L.p.
Yersinia pestis = experiment: microbe, parasite or virus in culture; conditions: read-out: MIC Y.p.
[8] = test system: Pseudomonas aeruginosa (PA01); experiment: MIC determination, microbroth dilution
[9] = test system: MRSA, Staphylococcus aureus (NRS70); experiment: MIC determination, microbroth dilution; conditions: Staphylococcus aureus (NRS70); read-out: MIC MRSA
[10] = test system: Streptococcus pneumoniae (R6); experiment: MIC determination, microbroth dilution
[11] = test system: Haemophilus influenza (ATCC 49247); experiment: microbe, parasite or virus in culture; conditions: ATCC49247; Haemophilus influenza; 4 μg per disc; range of at least two experiments; read-out: Zone of inhibition H.i.
Listeria monocytogenes = experiment: MIC determination (Table 6)
[12] = test system: Staphylococcus aureus (ATCC 29213); experiment: MIC determination, microbroth dilution
[13] = test system: Streptococcus pneumoniae clinical isolates representing several serotypes; experiment: MIC determination, Streptococcus pneumoniae panel of clinical isolates (Table 7); conditions: Streptococcus pneumoniae
[14] = test system: Escherichia coli (ATCC 700926); experiment: MIC determination, microbroth dilution; conditions: ATCC700926; Escherichia coli (ATCC 700926); read-out: MIC E.c.
[15] = test system: Proteus vulgaris (ATCC 33420); experiment: MIC determination, microbroth dilution; conditions: ATCC33420
[16] = test system: Streptococcus pyogenes (ATCC 700294); experiment: MIC determination, microbroth dilution; conditions: ATCC700294; Streptococcus pyogenes (ATCC 700294); read-out: MIC S. py.
E. coli K12 ΔtolC = experiment: microbe, parasite or virus in culture; conditions: Escherichia coli, read-out: MIC E.c. Δtolc
Moraxella catarrhalis = experiment: MIC determination (Table 6)
Bacillus anthracis = experiment: microbe, parasite or virus in culture; conditions: read-out: MIC B.a.
[17] = test system: acinetobacter baumannii (ATCC 19606); experiment: MIC determination, microbroth dilution; conditions: ATCC19606
[18] = test system: Neisseria meningitides (ATCC 13077); experiment: Disc diffusion assay; conditions: ATCC13077, 4 μg per disc, read-out: Zone of inhibition N.m.
[19] = test system: Enterococcus faecalis (ATCC 33186); experiment: MIC determination, microbroth dilution; conditions: ATCC33186; Enterococcus faecalis (ATCC 33186); read-out: MIC E.f.
[20] = test system: Neisseria gonorrhoeae (ATCC 49226); experiment: Disc diffusion assay; conditions: ATCC49226, 4 μg per disc, read-out: Zone of inhibition N.g.
[21] = test system: Bacillus subtilis (ATCC 23857); experiment: MIC determination, microbroth dilution; conditions: ATCC23857; Bacillus subtilis (ATCC 23857); read-out: MIC B.s.
[22] = test system: Burkholderia cepacia (ATCC 25416); experiment: MIC determination, microbroth dilution; conditions: Burkholderia cepacia
[23] = test system: Neisseria gonorrhoeae (ATCC 49226); experiment: Agar MIC determination (Alamar Blue); conditions: ATCC49226, agar MIC, read-out: MIC N.g.
[24] = Streptococcus pneumoniae (R6), read-out: MIC S. pn.
[25] = Streptococcus pneumoniae, S. pneumoniae R6, Drug Susceptible, read-out: MIC R6
[26] = BAA1407, S. pneumoniae BAA-1407, Macrolide Resistant, read-out: MIC BAA-1407
[27] = S. pneumoniae Daw7, PenG Resistant, read-out: MIC Daw7
[28] = S. pneumoniae Daw8, PenG Resistant, read-out: MIC Daw8
[29] = S. pneumoniae Daw9, PenG Resistant, read-out: MIC Daw9
[30] = S. pneumoniae Daw62, PenG Resistant, read-out: MIC Daw62
[31] = S. pneumoniae Daw64, PenG Resistant, read-out: MIC Daw64
[32] = S. pneumoniae OVA6, Macrolide Resistant, read-out: MIC OVA6
[33] = S. pneumoniae T4X, Drug Susceptible, read-out: MIC T4X
[34] = ATCC25416, read-out: MIC B.c., Burkholderia cepacia (ATCC 25416)
[35] = ATCC25416, read-out: MIC B.c., Burkholderia cepacia, Table 6

`CN[C@@H]1[C@H](O)[C@H](NC)[C@H]2O[C@]3(O)[C@H](O[C@@H]2[C@H]1O)O[C@H](C)C[C@@]3(O)CNCCc1ccccc1` [compound 6, 3′-(R)-3′-(phenethylaminomethyl)dihydrospectinomycin Trihydrochloride] was tested. Which MIC [1] did it give?
The MIC was 25 to 50 µg/mL.

What about the MIC ([2]; H37RV, read-out: MIC H37Rv) of the same compound?
Its MIC is 1.6 µg/mL.

What about the MIC ([2]; read-out: MIC TN022) of the same compound?
Its MIC is 3.1 µg/mL.

And the MIC ([2]; read-out: MIC TN026)?
The MIC was 3.1 µg/mL.

What about the MIC ([3]; read-out: MIC F.t.) of the same compound?
The MIC was 1.6 µg/mL.

What about the MIC [4] of the same compound?
The MIC was 1.6 µg/mL.

And the MIC [5]?
Its MIC is 6.3 to 12.5 µg/mL.

What about the MIC [6] of the same compound?
The MIC was over 200 µg/mL.

What about the zone of inhibition at 4 µg/disc [7] of the same compound?
Its zone of inhibition at 4 µg/disc is 36 mm.

And the MIC (Yersinia pestis)?
Its MIC is 200 µg/mL.

And the MIC [8]?
The MIC was at least 200 µg/mL.

And the MIC [9]?
Its MIC is 12.5 to 25 µg/mL.

What about the MIC [10, 24] of the same compound?
The MIC was 3.1 µg/mL.

And the MIC [10, 25]?
The MIC was 6.3 µg/mL.

What about the zone of inhibition at 4 µg/disc [11] of the same compound?
The zone of inhibition at 4 µg/disc was 14 mm.

What about the MIC (Listeria monocytogenes) of the same compound?
Its MIC is 3.1 µg/mL.

What about the MIC ([12]; Staphylococcus aureus, ATCC29213, read-out: MIC S.a.) of the same compound?
The MIC was 6.3 to 12.5 µg/mL.

What about the MIC [13, 26] of the same compound?
Its MIC is 12.5 µg/mL.

And the MIC ([13]; S. pneumoniae A66.1x, Drug Susceptible, read-out: MIC A66.1x)?
The MIC was 3.1 µg/mL.

What about the MIC ([13]; S. pneumoniae BHN97x, Drug Susceptible, read-out: MIC BHN97x) of the same compound?
Its MIC is 3.1 µg/mL.

And the MIC ([13]; S. pneumoniae D39X, Drug Susceptible, read-out: MIC D39X)?
The MIC was 3.1 µg/mL.

And the MIC [13, 27]?
The MIC was 6.3 µg/mL.

And the MIC [13, 28]?
Its MIC is 6.3 µg/mL.

What about the MIC [13, 29] of the same compound?
The MIC was 6.3 µg/mL.

And the MIC [13, 30]?
The MIC was 6.3 µg/mL.

And the MIC [13, 31]?
Its MIC is 6.3 µg/mL.

What about the MIC [13, 32] of the same compound?
The MIC was 3.1 µg/mL.

What about the MIC [13, 33] of the same compound?
The MIC was 3.1 µg/mL.

And the MIC [14]?
Its MIC is 6.3 to 12.5 µg/mL.

What about the MIC [15] of the same compound?
Its MIC is 50 to 100 µg/mL.

What about the MIC [16] of the same compound?
The MIC was 3.1 µg/mL.

What about the MIC (E. coli K12 ΔtolC) of the same compound?
Its MIC is 3.1 to 6.3 µg/mL.

And the MIC (Moraxella catarrhalis)?
The MIC was 0.4 µg/mL.

And the MIC (Bacillus anthracis)?
The MIC was 6.3 to 12.5 µg/mL.

What about the MIC [17] of the same compound?
Its MIC is over 200 µg/mL.

What about the zone of inhibition at 4 µg/disc [18] of the same compound?
The zone of inhibition at 4 µg/disc was 16 mm.

And the MIC [19]?
The MIC was 12.5 µg/mL.

And the zone of inhibition at 4 µg/disc [20]?
Its zone of inhibition at 4 µg/disc is 16 mm.

And the MIC [21]?
Its MIC is 1.6 µg/mL.

What about the MIC [22, 34] of the same compound?
Its MIC is over 200 µg/mL.

What about the MIC [22, 35] of the same compound?
Its MIC is over 200 µg/mL.

How did the MIC [1] turn out when `CN[C@@H]1[C@H](O)[C@H](NC)[C@H]2O[C@]3(O)[C@H](O[C@@H]2[C@H]1O)O[C@H](C)C[C@@]3(O)CNCc1ccccc1OC(F)(F)F` [compound 10, Trihydrochloride] was run?
The MIC was 100 to 200 µg/mL.

And the MIC ([2]; H37RV, read-out: MIC H37Rv)?
Its MIC is 200 µg/mL.

And the MIC [3]?
Its MIC is 25 µg/mL.

And the MIC ([3]; read-out: MIC F.t.)?
The MIC was 25 µg/mL.

What about the MIC [4] of the same compound?
The MIC was 50 µg/mL.

What about the MIC [5] of the same compound?
Its MIC is 200 µg/mL.

What about the MIC [6] of the same compound?
The MIC was over 200 µg/mL.

And the MIC (Yersinia pestis)?
Its MIC is 200 µg/mL.

And the MIC [23]?
The MIC was 200 µg/mL.

What about the MIC [8] of the same compound?
Its MIC is 200 µg/mL.

And the MIC [9]?
The MIC was 200 µg/mL.

And the MIC [10, 24]?
The MIC was 25 µg/mL.

And the MIC [10, 25]?
Its MIC is 12.5 µg/mL.

What about the zone of inhibition at 4 µg/disc [11] of the same compound?
Its zone of inhibition at 4 µg/disc is 0 mm.

What about the MIC (Listeria monocytogenes) of the same compound?
The MIC was 100 µg/mL.

What about the MIC ([12]; ATCC29213, Staphylococcus aureus (ATCC 29213), read-out: MIC S.a.) of the same compound?
The MIC was 200 µg/mL.

And the MIC [13, 26]?
The MIC was 25 µg/mL.

And the MIC [13, 27]?
Its MIC is 12.5 µg/mL.

And the MIC [13, 28]?
The MIC was 12.5 µg/mL.

And the MIC [13, 29]?
Its MIC is 12.5 µg/mL.

And the MIC [13, 30]?
Its MIC is 12.5 µg/mL.

And the MIC [13, 31]?
Its MIC is 25 µg/mL.

And the MIC [13, 32]?
Its MIC is 6.3 µg/mL.

What about the MIC [13, 33] of the same compound?
Its MIC is 3.1 µg/mL.

And the MIC [14]?
The MIC was 200 µg/mL.

And the MIC [15]?
The MIC was over 200 µg/mL.

And the MIC [16]?
The MIC was 25 to 50 µg/mL.

And the MIC (E. coli K12 ΔtolC)?
Its MIC is 25 to 50 µg/mL.

And the MIC (Moraxella catarrhalis)?
The MIC was 50 to 100 µg/mL.

And the MIC (Bacillus anthracis)?
The MIC was 200 µg/mL.

What about the MIC [17] of the same compound?
Its MIC is 100 to 200 µg/mL.

And the zone of inhibition at 4 µg/disc [18]?
Its zone of inhibition at 4 µg/disc is 0 mm.

And the MIC [19]?
Its MIC is 200 µg/mL.

And the zone of inhibition at 4 µg/disc [20]?
Its zone of inhibition at 4 µg/disc is 8 mm.

What about the MIC [21] of the same compound?
The MIC was 50 µg/mL.

And the MIC [22, 34]?
The MIC was over 200 µg/mL.

And the MIC [22, 35]?
Its MIC is over 200 µg/mL.
